Results as given in patent US6605589B1, “Cathepsin inhibitors in cancer treatment” (Parker Hughes Institute, priority 2000, dated 2003).

Columns and labels:
Test in all cases: In vitro clonogenic assay
Format in all cases: cell-based, human
[1] = system: K-562 (CML); settings: for Mean no, of colonies / %, inhibition: 24 hours
Description: (§1) In vitro clonogenic assays were carried out to determine the cytotoxic activity of the cathepsin inhibitor I (CATI-1) (Z-Phe-Gly-NHO-Bz) against cancer cells. The cancer cell lines used in the assay were U373 (glioblastoma), BT-20 (breast cancer), SQ20B (squamous cell carcinoma), RS4;11 (pro-B ALL), ALL-1 (pre-pre-B ALL), KM-3, MOLT-3 (T-ALL), JURKAT (T-ALL), K-562 (CML), HL-60 (AML), DAUDI (NHL), RAMOS (NHL) and RAJI (NHL). Each cell line was treated under several concentrations of CATI-1 for 24 hours, washed with serum free medium and resuspended in clonogenic medium having 10% fetal bovine serum and 0.9% methylcellulose. Resuspended cells were plated in duplicate 35-mm Petri dishes at 10,000 to 20,000 cells per dish and cultured at 37° C. in a humidified 5% CO2 atmosphere for 5 to 7 days.
(§2) Images of colonies in each dish were taken by a digital camera (Princeton Instruments, Inc.) linked to a microscope (Nikon Diaphot 200). Colony numbers were determined using an inverted phase microscope and percent inhibition of colony formation determined using the formula:
(§3) % inhibition=(1−(colony number in test sample/colony number in control sample))×100.

[2] = system: ALL-1 (pre-pre B ALL); settings: for %, inhibition / Mean no, of colonies: 24 hours
Description: as §1, §2, §3

[3] = system: DAUDI (NHL); settings: CATI-1 10 uM, 24 hours
Description: as §1, §2, §3

[4] = system: RAJI (NHL); settings: for %, inhibition / Mean no, of colonies: 24 hours
Description: as §1, §2, §3

[5] = system: KM-3 (pre-B ALL); settings: 24 hours
Description: as §1, §2, §3

[6] = system: SQ20B (neck cancer); settings: 24 hours
Description: as §1, §2, §3

[7] = system: U373 (brain tumor); settings: 24 hours
Description: as §1, §2, §3

[8] = system: JURKAT (T-ALL); settings: for %, inhibition / Mean no, of colonies: 24 hours
Description: as §1, §2, §3

[9] = read-out: IC50 (colony formation)

- IC50 [1, 9]: 15.4 µM
- IC50 [2, 9]: 6.2 µM
- IC50 [4, 9]: 5.8 µM
- %, inhibition ([5]; CATI-1 10 uM): 79.2%
- Mean no, of colonies ([5]; CATI-1 10 uM): 578 (520, 636)
- %, inhibition ([5]; CATI-1 20 uM): 100%
- Mean no, of colonies ([5]; CATI-1 20 uM): 0 (0, 0)
- IC50 [8, 9]: 14.5 µM
SMILES: O=C(CNC(=O)[C@H](Cc1ccccc1)NC(=O)OCc1ccccc1)NOC(=O)c1ccccc1 [CATI-1, Z-Phe-Gly-NHO-Bz]
- Mean no, of colonies ([1]; CATI-1 10 uM): 3806 (3980, 3632)
- %, inhibition ([1]; CATI-1 20 uM): 76.9%
- Mean no, of colonies ([1]; CATI-1 20 uM): 1086 (1196, 976)
- %, inhibition ([1]; CATI-1 35 uM): 99.8%
- Mean no, of colonies ([1]; CATI-1 35 uM): 10 (12, 8)
- %, inhibition ([2]; CATI-1 10 uM): 80.4%
- Mean no, of colonies ([2]; CATI-1 10 uM): 338 (348, 328)
- %, inhibition ([2]; CATI-1 20 uM): 99.6%
- Mean no, of colonies ([2]; CATI-1 20 uM): 7 (6, 8)
- %, inhibition ([2]; CATI-1 35 uM): 100%
- Mean no, of colonies ([2]; CATI-1 35 uM): 0 (0, 0)
- %, inhibition [3]: 100%
- Mean no, of colonies [3]: 0 (0, 0)
- %, inhibition ([4]; CATI-1 10 uM): 86.5%
- Mean no, of colonies ([4]; CATI-1 10 uM): 168 (124, 212)
- %, inhibition ([4]; CATI-1 20 uM): 97.4%
- Mean no, of colonies ([4]; CATI-1 20 uM): 32 (40, 24)
- %, inhibition ([4]; CATI-1 35 uM): 100%
- Mean no, of colonies ([4]; CATI-1 35 uM): 0 (0, 0)
- %, inhibition ([6]; CATI-1 50 uM): 40%
- Mean no, of colonies ([6]; CATI-1 50 uM): 1838 (1732, 1944)
- %, inhibition ([6]; CATI-1 100 uM): 90%
- Mean no, of colonies ([6]; CATI-1 100 uM): 306 (280, 332)
- %, inhibition ([7]; CATI-1 30 uM): 97%
- Mean no, of colonies ([7]; CATI-1 30 uM): 76 (84, 67)
- %, inhibition ([7]; CATI-1 50 uM): 100%
- Mean no, of colonies ([7]; CATI-1 50 uM): 0
- %, inhibition ([8]; CATI-1 10 uM): 10.0%
- Mean no, of colonies ([8]; CATI-1 10 uM): 5110 (5260, 4960)
- %, inhibition ([8]; CATI-1 20 uM): 98.9%
- Mean no, of colonies ([8]; CATI-1 20 uM): 64 (40, 88)
- %, inhibition ([8]; CATI-1 35 uM): 100%
- Mean no, of colonies ([8]; CATI-1 35 uM): 0 (0, 0)
